Measured values from patent US20050137145A1, “Metabolites of 1-dimethylamino-3-(3-methoxy-phenyl)-2-methyl-pentan-3-ol and their use in the treatment of urinary incontinence” (Gruenenthal GmbH, priority 2002, published 2005).
Marks after values point to notes of the source that are not given here.

Test system: naive female Sprague-Dawley rats
Experiment: Cystometry test system on the conscious naive rat
Assay type: in vivo
Conditions: for BC bladder capacity (change relative to the preliminary value) / ICI inter-contraction interval (change relative to the preliminary value) / TP threshold pressure (change relative to the preliminary value): at maximum activity, mean of 3 miction cycles; for effect on bladder regulation (in words): summary of the cystometry results, i.v.
Protocol: Cystometric investigations were carried out on naive female Sprague-Dawley rats according to the method of Ishizuka et al. ((1997), Naunyn-Schmiedeberg's Arch. Pharmacol. 355: 787-793). Three days after the implantation of bladder and venous catheters, the animals, which were free to move, were studied in the conscious state. The bladder catheter was attached to a pressure transducer and an injection pump. The animals were placed in metabolic cages which allowed the volume of urine to be measured. Physiological saline solution was infused into the emptied bladder (10 ml/h) and the bladder pressure and miction volume were recorded continuously. After a stabilization phase, a 20-minute phase characterised by normal, reproducible miction cycles was recorded. The following parameters, inter alia, were determined: • threshold pressure (TP, bladder pressure immediately before miction), • bladder capacity (BC, residual volume after previous miction plus volume of solution infused during the filling phase), • inter-contraction interval (ICI, the time interval between mictions).
An increase in the threshold pressure (TP) indicates an important therapeutic activity in one of the indications according to the invention. The inter-contraction interval (ICI) is also an important parameter for measuring the physiological effectiveness of a substance in the treatment of urinary incontinence, as is the bladder capacity (BC). Because the causes of the symptoms of these disorders are highly heterogeneous, it is not necessary for all three parameters to be influenced positively in order for effectiveness to exist. It is, therefore, entirely satisfactory for a positive effect to be determined in only one of these parameters in order to be usable in urinary incontinence or increased urinary urgency.
After three reproducible miction cycles had been recorded as the preliminary value, the test substances 1 (1.0 mg/kg), 2 (0.1; 0.3 and 0.5 mg/kg), 21 (0.5 mg/kg) and 7 (0.3 mg/kg) were administered i.v. in the vehicle=0.9% NaCl and the effect on the cystometric parameters was recorded for 90 to 120 minutes. At the maximum activity, the mean of 3 miction cycles was determined and indicated as the percentage change relative to the preliminary value (Table 1).

## CC[C@](O)(c1cccc(OC)c1)[C@H](C)CN(C)C.Cl [Compound 2, (+)-(2R,3R)-1-Dimethylamino-3-(3-methoxy-phenyl)-2-methyl-pentan-3-ol, hydrochloride]
0.1 mg/kg i.v.
  BC bladder capacity (change relative to the preliminary value): +7.8%
  ICI inter-contraction interval (change relative to the preliminary value): +15.6%
  TP threshold pressure (change relative to the preliminary value): +28.5%**
0.3 mg/kg i.v.
  BC bladder capacity (change relative to the preliminary value): +33%*
  ICI inter-contraction interval (change relative to the preliminary value): +28%*
  TP threshold pressure (change relative to the preliminary value): +122%**
0.5 mg/kg i.v.
  BC bladder capacity (change relative to the preliminary value): +20.6%*
  ICI inter-contraction interval (change relative to the preliminary value): +28.6%**
  TP threshold pressure (change relative to the preliminary value): +77.5%**
  effect on bladder regulation (in words): very effective

## CCC(O)(c1cccc(O)c1)C(C)CN(C)C.Cl (racemic) [Compound 7, (2RS,3RS)-3-(3-Dimethylamino-1-ethyl-1-hydroxy-2-methyl-propyl)-phenol, hydrochloride]
0.3 mg/kg i.v.
  BC bladder capacity (change relative to the preliminary value): +32%*
  ICI inter-contraction interval (change relative to the preliminary value): +28%*
  TP threshold pressure (change relative to the preliminary value): +95%**

## CC[C@@](O)(c1cccc(OC)c1)[C@@H](C)CN(C)C.Cl [Compound 21, (−)-(2S,3S)-1-Dimethylamino-3-(3-methoxy-phenyl)-2-methyl-pentan-3-ol, hydrochloride]
0.5 mg/kg i.v.
  BC bladder capacity (change relative to the preliminary value): +3%
  ICI inter-contraction interval (change relative to the preliminary value): +10%
  TP threshold pressure (change relative to the preliminary value): −1.1%
  effect on bladder regulation (in words): does not make such a strong contribution to the action

## CC[C@](O)(c1cccc(OC)c1)[C@H](C)CN(C)C.Cl (racemic) [Compound 1, (2RS,3RS)-1-Dimethylamino-3-(3-methoxy-phenyl)-2-methyl-pentan-3-ol, hydrochloride]
1.0 mg/kg i.v.
  BC bladder capacity (change relative to the preliminary value): +31%***
  ICI inter-contraction interval (change relative to the preliminary value): +42%
  TP threshold pressure (change relative to the preliminary value): +94%**
